Usually T/C stands for the result in the treated group divided by that in the control group, in per cent.

This experiment relates to BDF1 mice, Adenocarcinoma 755 s.c., tumor weight T/C. Description: NCI In Vivo Anticancer Drug Screen. Data for tumor model Adenocarcinoma 755 (subcutaneous) in B6D2F1 (BDF1) mice. The conditions noted are these: endpoint: mean tumor weight, schedule: Q01DX011 (ip), higher = larger tumour. An outline of the steps:
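Values express treated (T) relative to vehicle-dosed control (C) animals, based on survival or tumour size measured after compound treatment of mice bearing a transplanted tumour.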

[1] abbreviates: dose: 100.0 mg/kg/injection, vehicle: other.
[2] abbreviates: dose: 400.0 mg/kg/injection, vehicle: other.
Where [3] appears, read: dose: 800.0 mg/kg/injection, vehicle: other.

Where “and” joins values, the source holds several entries; their conditions need not be identical. Equal entries are not always repeated.

Turning to `C=CCSc1nc(N)nc2nc[nH]c12`, the T/C reads like this: (dose: 2.0 mg/kg/injection, vehicle: methylcellulose (MC)) 50 % of control; (dose: 4.0 mg/kg/injection, vehicle: methylcellulose (MC)) 41 % of control; (dose: 16.0 mg/kg/injection, vehicle: methylcellulose (MC)) 3 % of control.
For the compound `Nc1ncnc2c1ncn2C(C=O)OC(C=O)CO` (stereo not given), the T/C (dose: 15.0 mg/kg/injection, vehicle: carboxymethylcellulose (CMC)) is 93 % of control.
Regarding `N=[N+]=CC(=O)OCC(N)C(=O)O` (stereo not given), the T/C is, setting by setting: (dose: 0.9 mg/kg/injection, vehicle: carboxymethylcellulose (CMC)) 124 % of control; (dose: 1.8 mg/kg/injection, vehicle: carboxymethylcellulose (CMC)) 111 % of control; (dose: 2.31 mg/kg/injection, vehicle: carboxymethylcellulose (CMC)) 72 % of control; (dose: 3.6 mg/kg/injection, vehicle: carboxymethylcellulose (CMC)) 90 % of control and 78 % of control; (dose: 4.63 mg/kg/injection, vehicle: carboxymethylcellulose (CMC)) 61 % of control; (dose: 4.8 mg/kg/injection, vehicle: carboxymethylcellulose (CMC)) 62 % of control and 74 % of control. In addition, the T/C was 28 % of control and 40 % of control and 51 % of control (dose: 7.2 mg/kg/injection, vehicle: carboxymethylcellulose (CMC)); 50 % of control (dose: 7.4 mg/kg/injection, vehicle: carboxymethylcellulose (CMC)); 50 % of control and 66 % of control (dose: 9.25 mg/kg/injection, vehicle: carboxymethylcellulose (CMC)); 23 % of control (dose: 12.33 mg/kg/injection, vehicle: carboxymethylcellulose (CMC)); 10 % of control (dose: 18.5 mg/kg/injection, vehicle: carboxymethylcellulose (CMC)).
Take `Nc1nc2c([nH]c(=S)n2C2OC(CO)C(O)C2O)c(=O)[nH]1` (stereo not given): the T/C reads like this: (dose: 30.0 mg/kg/injection, vehicle: carboxymethylcellulose (CMC)) 89 % of control; (dose: 60.0 mg/kg/injection, vehicle: carboxymethylcellulose (CMC)) 156 % of control; (dose: 120.0 mg/kg/injection, vehicle: carboxymethylcellulose (CMC)) 112 % of control; (dose: 240.0 mg/kg/injection, vehicle: carboxymethylcellulose (CMC)) 110 % of control.
Regarding `O=C(N[C@H](CO)[C@H](O)c1ccc([N+](=O)[O-])cc1)C(Cl)Cl`, the T/C was 88 % of control (dose: 71.73 mg/kg/injection, vehicle: carboxymethylcellulose (CMC)); 103 % of control and 106 % of control (dose: 73.63 mg/kg/injection, vehicle: carboxymethylcellulose (CMC)); 95 % of control (dose: 95.85 mg/kg/injection, vehicle: carboxymethylcellulose (CMC)); 104 % of control (dose: 143.47 mg/kg/injection, vehicle: carboxymethylcellulose (CMC)); 71 % of control (dose: 147.25 mg/kg/injection, vehicle: carboxymethylcellulose (CMC)); 70 % of control (dose: 187.5 mg/kg/injection, vehicle: methylcellulose (MC)). Also, the T/C was 156 % of control (dose: 191.7 mg/kg/injection, vehicle: carboxymethylcellulose (CMC)); 115 % of control (dose: 286.95 mg/kg/injection, vehicle: carboxymethylcellulose (CMC)); 65 % of control (dose: 294.5 mg/kg/injection, vehicle: carboxymethylcellulose (CMC)); 104 % of control (dose: 300.0 mg/kg/injection, vehicle: carboxymethylcellulose (CMC)); 62 % of control (dose: 375.0 mg/kg/injection, vehicle: methylcellulose (MC)); 69 % of control (dose: 500.0 mg/kg/injection, vehicle: carboxymethylcellulose (CMC)). In addition, the T/C (dose: 750.0 mg/kg/injection, vehicle: methylcellulose (MC)) is 99 % of control.
Consider `CN(C)N=Nc1ccc(CCCC(=O)NN)cc1`, for which the T/C reads like this: (dose: 31.0 mg/kg/injection, vehicle: carboxymethylcellulose (CMC)) 60 % of control; (dose: 62.0 mg/kg/injection, vehicle: carboxymethylcellulose (CMC)) 10 % of control.
On to `Oc1ccc2ccccc2c1N=Nc1ccc(Cl)cc1`, for which the T/C (dose: 3.1 mg/kg/injection, vehicle: other) was 15 % of control; the T/C (dose: 6.25 mg/kg/injection, vehicle: other) was 108 % of control; the T/C (dose: 12.5 mg/kg/injection, vehicle: other) is 91 % of control and 84 % of control; the T/C (dose: 25.0 mg/kg/injection, vehicle: other) was 56 % of control and 62 % of control; the T/C (dose: 50.0 mg/kg/injection, vehicle: carboxymethylcellulose (CMC)) is 50 % of control; the T/C (dose: 100.0 mg/kg/injection, vehicle: carboxymethylcellulose (CMC)) is 40 % of control. In addition, the T/C was 24 % of control and 49 % of control under setting [1]; 81 % of control (dose: 100.0 mg/kg/injection, vehicle: saline); 34 % of control (dose: 200.0 mg/kg/injection, vehicle: carboxymethylcellulose (CMC)); 25 % of control (dose: 200.0 mg/kg/injection, vehicle: other); 38 % of control (dose: 200.0 mg/kg/injection, vehicle: saline); 36 % of control (dose: 400.0 mg/kg/injection, vehicle: carboxymethylcellulose (CMC)). The T/C was 14 % of control and 24 % of control under setting [2]; 28 % of control (dose: 400.0 mg/kg/injection, vehicle: saline); 16 % of control (dose: 800.0 mg/kg/injection, vehicle: carboxymethylcellulose (CMC)); 6 % of control under setting [3]; 9 % of control (dose: 1200.0 mg/kg/injection, vehicle: other).
With `COc1ncnc2nc[nH]c12`, the T/C runs as follows: (dose: 62.0 mg/kg/injection, vehicle: other) 107 % of control; (dose: 125.0 mg/kg/injection, vehicle: other) 90 % of control; (dose: 250.0 mg/kg/injection, vehicle: other) 44 % of control.
As to `CCCOP(=S)(N1CC1)N1CC1`, the T/C (dose: 3.3 mg/kg/injection, vehicle: methylcellulose (MC)) was 74 % of control; the T/C (dose: 6.8 mg/kg/injection, vehicle: methylcellulose (MC)) was 77 % of control; the T/C (dose: 13.5 mg/kg/injection, vehicle: methylcellulose (MC)) was 40 % of control.
As for `CC(=O)Nc1c(Cl)c(Cl)c2c(c1Cl)C(=O)c1cc(Cl)ccc1-2`, the T/C reads like this: (dose: 50.0 mg/kg/injection, vehicle: methylcellulose (MC)) 57 % of control; (dose: 50.0 mg/kg/injection, vehicle: other) 100 % of control and 112 % of control; (dose: 100.0 mg/kg/injection, vehicle: methylcellulose (MC)) 65 % of control; under setting [1], 65 % of control; under setting [2], 41 % of control and 64 % of control and 66 % of control; under setting [3], 59 % of control.
On to `Brc1ncc2[nH]cnc2n1`, for which the T/C reads like this: (dose: 25.0 mg/kg/injection, vehicle: methylcellulose (MC)) 79 % of control; (dose: 75.0 mg/kg/injection, vehicle: methylcellulose (MC)) 75 % of control.

Values taken from PubChem BioAssay AID180 (DTP/NCI, 2004).
